Measured values from patent US12643895B2, “Heteroaryl-substituted pyrazolo-pyridine protein kinase inhibitors for promoting liver regeneration or reducing or preventing hepatocyte death” (HepaRegeniX GmbH, priority 2019, dated 2026).

What was measured:
Type in all cases: biochemical
MKK4 = target: T1, MKK4 (Homo sapiens, UniProt P45985); test: 33PanQinase radiometric kinase assay, MKK4; details: category based on IC50-values; ATP at apparent Km; read-out: Potency MKK4
T1 construct: purchased ProQinase GmbH, Freiburg, Germany (assay service)
T1 sequence (P45985 1-399): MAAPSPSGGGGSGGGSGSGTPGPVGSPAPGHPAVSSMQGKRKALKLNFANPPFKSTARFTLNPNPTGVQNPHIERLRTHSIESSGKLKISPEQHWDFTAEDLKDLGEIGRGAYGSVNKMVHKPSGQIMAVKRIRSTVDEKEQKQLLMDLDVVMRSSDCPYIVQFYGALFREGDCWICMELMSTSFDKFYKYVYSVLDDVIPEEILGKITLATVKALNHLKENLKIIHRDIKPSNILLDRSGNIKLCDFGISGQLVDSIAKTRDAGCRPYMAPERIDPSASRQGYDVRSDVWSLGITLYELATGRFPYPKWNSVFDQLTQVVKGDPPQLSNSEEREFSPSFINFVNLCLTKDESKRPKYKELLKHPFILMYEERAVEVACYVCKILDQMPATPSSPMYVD
Protocol: (§1) The kinase activities of the compounds of the invention were measured using the 33PanQinase® Assay Service provided by ProQinase GmbH, Freiburg, Germany. Details of the assay conditions are disclosed on the website of ProQinase (https://www.proqinase.com/products-services-biochemical-assay-services/kinase-assays). In brief, all kinase assays were performed in 96-well FlashPlates™ from PerkinElmer (Boston, MA, USA) in a 50 μl reaction volume. The reaction cocktail was pipetted in four steps in the following order: • 20 μl of assay buffer (standard buffer) • 5 μl of ATP solution (in H2O) • 5 μl of test compound (in 10% DMSO) • 20 μl enzyme/substrate mix
(§2) The reaction cocktails were incubated at 30° C. for 60 minutes. The reaction is stopped with 50 μl of 2% (v/v) H3PO4, plates were aspirated and washed two times with 200 μl 0.9% (w/v) NaCl. Incorporation of ^33Pi was determined with a microplate scintillation counter (Microbeta, Wallac).
(§3) All assays were performed with a BeckmanCoulter/SAGIAN™ Core System.
(§4) In case of single concentration assays, the potency of the test compound is expressed as % residual activity. […] The fitting method used was a least-squares fit.

BRaf = target: T2, BRaf (Homo sapiens, UniProt P15056); test: 33PanQinase radiometric kinase assay, BRaf (off-target); details: ratio IC50(off-target)/IC50(MKK4)
T2 construct: purchased ProQinase GmbH, Freiburg, Germany (assay service)
T2 sequence (P15056 whole entry): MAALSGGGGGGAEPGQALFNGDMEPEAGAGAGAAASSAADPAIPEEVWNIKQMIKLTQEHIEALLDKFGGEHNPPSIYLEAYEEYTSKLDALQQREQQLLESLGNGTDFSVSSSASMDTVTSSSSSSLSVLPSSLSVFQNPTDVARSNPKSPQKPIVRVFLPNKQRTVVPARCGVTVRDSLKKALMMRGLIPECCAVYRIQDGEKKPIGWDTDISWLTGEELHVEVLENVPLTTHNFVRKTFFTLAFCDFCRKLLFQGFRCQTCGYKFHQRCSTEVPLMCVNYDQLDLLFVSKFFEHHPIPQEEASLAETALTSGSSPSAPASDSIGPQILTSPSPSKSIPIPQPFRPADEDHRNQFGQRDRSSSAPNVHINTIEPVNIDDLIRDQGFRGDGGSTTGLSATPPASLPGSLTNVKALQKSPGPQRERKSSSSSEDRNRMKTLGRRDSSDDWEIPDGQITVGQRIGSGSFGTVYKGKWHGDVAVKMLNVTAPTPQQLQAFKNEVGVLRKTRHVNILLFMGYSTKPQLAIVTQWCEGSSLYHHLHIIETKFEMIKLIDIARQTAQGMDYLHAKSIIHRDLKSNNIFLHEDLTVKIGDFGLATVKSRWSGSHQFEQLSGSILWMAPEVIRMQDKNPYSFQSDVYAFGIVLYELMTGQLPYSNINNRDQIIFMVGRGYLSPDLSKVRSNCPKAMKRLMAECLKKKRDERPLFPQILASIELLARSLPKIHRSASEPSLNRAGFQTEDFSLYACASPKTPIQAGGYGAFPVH
Protocol: as §1, §2, §3, §4
(§5) Selectivity of test compounds against BRaf, JNK1 and MKK7, altogether denominated as off-targets was calculated by the ratio of IC50 (off-target)/IC50 (MKK4) and categorized as follows: […]

JNK1 = target: T3, JNK1 (Homo sapiens, UniProt P45983); test: 33PanQinase radiometric kinase assay, JNK1 (off-target); details: ratio IC50(off-target)/IC50(MKK4)
T3 construct: purchased ProQinase GmbH, Freiburg, Germany (assay service)
T3 sequence (P45983 whole entry): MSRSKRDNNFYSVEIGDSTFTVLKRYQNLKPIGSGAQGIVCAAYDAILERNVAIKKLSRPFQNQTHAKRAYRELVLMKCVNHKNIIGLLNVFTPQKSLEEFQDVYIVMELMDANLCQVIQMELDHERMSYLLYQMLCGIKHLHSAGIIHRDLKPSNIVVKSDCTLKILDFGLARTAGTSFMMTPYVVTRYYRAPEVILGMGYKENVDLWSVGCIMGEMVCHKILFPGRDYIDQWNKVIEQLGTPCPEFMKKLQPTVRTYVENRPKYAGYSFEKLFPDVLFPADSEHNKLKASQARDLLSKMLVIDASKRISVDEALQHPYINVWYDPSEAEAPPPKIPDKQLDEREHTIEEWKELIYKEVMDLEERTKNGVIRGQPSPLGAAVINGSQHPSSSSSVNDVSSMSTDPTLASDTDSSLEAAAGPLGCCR
Protocol: as §1, §2, §3, §4, §5

MKK7 = target: T4, MKK7 (Homo sapiens, UniProt O14733); test: 33PanQinase radiometric kinase assay, MKK7 (off-target); details: ratio IC50(off-target)/IC50(MKK4)
T4 construct: purchased ProQinase GmbH, Freiburg, Germany (assay service)
T4 sequence (O14733 1-419): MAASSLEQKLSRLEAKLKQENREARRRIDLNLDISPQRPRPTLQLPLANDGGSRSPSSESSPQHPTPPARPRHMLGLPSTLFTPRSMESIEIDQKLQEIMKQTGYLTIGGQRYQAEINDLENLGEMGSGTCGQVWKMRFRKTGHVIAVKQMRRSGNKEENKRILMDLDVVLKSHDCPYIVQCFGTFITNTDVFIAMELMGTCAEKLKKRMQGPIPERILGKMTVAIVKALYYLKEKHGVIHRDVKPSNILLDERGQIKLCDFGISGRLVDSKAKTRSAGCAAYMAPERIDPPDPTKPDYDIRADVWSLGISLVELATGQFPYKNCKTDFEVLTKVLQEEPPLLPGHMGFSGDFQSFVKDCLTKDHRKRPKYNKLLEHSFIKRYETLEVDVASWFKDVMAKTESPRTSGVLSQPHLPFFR
Protocol: as §1, §2, §3, §4, §5

SMILES: CCCS(=O)(=O)Nc1c(F)ccc(C(=O)c2n[nH]c3ncc(-c4ccncc4Cl)cc23)c1F [Example 17, N-(3-(5-(3-chloropyridin-4-yl)-1H-pyrazolo[3,4-b]pyridine-3-carbonyl)-2,6-difluorophenyl)propane-1-sulfonamide]
- IC50 (MKK4): < 100 nM
- Selectivity Braf (BRaf): +++ (IC50(off-target)/IC50(MKK4) > 100)
- Selectivity JNK1 (JNK1): +++ (IC50(off-target)/IC50(MKK4) > 100)
- Selectivity MKK7 (MKK7): +++ (IC50(off-target)/IC50(MKK4) > 100)

SMILES: CCCS(=O)(=O)Nc1c(F)ccc(C(=O)c2n[nH]c3ncc(-c4cnc(C)nc4)cc23)c1F [Example 7, N-(2,6-difluoro-3-(5-(2-methylpyrimidin-5-yl)-1H-pyrazolo[3,4-b]pyridine-3-carbonyl)phenyl)propane-1-sulfonamide]
- IC50 (MKK4): < 100 nM
- Selectivity Braf (BRaf): +++ (IC50(off-target)/IC50(MKK4) > 100)
- Selectivity JNK1 (JNK1): +++ (IC50(off-target)/IC50(MKK4) > 100)
- Selectivity MKK7 (MKK7): +++ (IC50(off-target)/IC50(MKK4) > 100)

SMILES: CCCS(=O)(=O)Nc1c(F)ccc(C(=O)c2n[nH]c3ncc(-c4ccncc4C)cc23)c1F [Example 18, N-(2,6-difluoro-3-(5-(3-methylpyridin-4-yl)-1H-pyrazolo[3,4-b]pyridine-3-carbonyl)phenyl)propane-1-sulfonamide]
- IC50 (MKK4): < 100 nM
- Selectivity Braf (BRaf): +++ (IC50(off-target)/IC50(MKK4) > 100)
- Selectivity JNK1 (JNK1): +++ (IC50(off-target)/IC50(MKK4) > 100)
- Selectivity MKK7 (MKK7): +++ (IC50(off-target)/IC50(MKK4) > 100)

SMILES: CCCS(=O)(=O)Nc1c(F)ccc(C(=O)c2n[nH]c3ncc(-c4ccc(C(C)(C)C)cc4)cc23)c1F [Example 19, N-(3-(5-(4-(tert-butyl)phenyl)-1H-pyrazolo[3,4-b]pyridine-3-carbonyl)-2,6-difluorophenyl)propane-1-sulfonamide]
- IC50 (MKK4): 100 to 1000 nM
- Selectivity Braf (BRaf): +++ (IC50(off-target)/IC50(MKK4) > 100)
- Selectivity JNK1 (JNK1): ++ (100 ≥ IC50(off-target)/IC50(MKK4) > 10)
- Selectivity MKK7 (MKK7): +++ (IC50(off-target)/IC50(MKK4) > 100)

SMILES: CCCS(=O)(=O)Nc1c(F)ccc(C(=O)c2n[nH]c3ncc(-c4cnc(C(=O)O)nc4)cc23)c1F [Example 8, 5-(3-(2,4-difluoro-3-(propylsulfonamido)benzoyl)-1H-pyrazolo[3,4-b]pyridin-5-yl)pyrimidine-2-carboxylic acid]
- IC50 (MKK4): < 100 nM
- Selectivity Braf (BRaf): +++ (IC50(off-target)/IC50(MKK4) > 100)
- Selectivity JNK1 (JNK1): +++ (IC50(off-target)/IC50(MKK4) > 100)
- Selectivity MKK7 (MKK7): ++ (100 ≥ IC50(off-target)/IC50(MKK4) > 10)

SMILES: CCCS(=O)(=O)Nc1c(F)ccc(C(=O)c2n[nH]c3ncc(-c4cnc(C(C)(C)C)nc4)cc23)c1F [Example 21, N-(3-(5-(2-(tert-butyl)pyrimidin-5-yl)-1H-pyrazolo[3,4-b]pyridine-3-carbonyl)-2,6-difluorophenyl)propane-1-sulfonamide]
- IC50 (MKK4): < 100 nM
- Selectivity Braf (BRaf): +++ (IC50(off-target)/IC50(MKK4) > 100)
- Selectivity JNK1 (JNK1): +++ (IC50(off-target)/IC50(MKK4) > 100)
- Selectivity MKK7 (MKK7): +++ (IC50(off-target)/IC50(MKK4) > 100)

SMILES: CCOC(=O)c1ccc(-c2cnc3[nH]nc(C(=O)c4ccc(F)c(NS(C)(=O)=O)c4F)c3c2)cc1 [Example 4, Ethyl 4-(3-(2,4-difluoro-3-(methylsulfonamido)benzoyl)-1H-pyrazolo[3,4-b]pyridin-5-yl)benzoate]
- IC50 (MKK4): 100 to 1000 nM
- Selectivity Braf (BRaf): +++ (IC50(off-target)/IC50(MKK4) > 100)
- Selectivity JNK1 (JNK1): ++ (100 ≥ IC50(off-target)/IC50(MKK4) > 10)
- Selectivity MKK7 (MKK7): +++ (IC50(off-target)/IC50(MKK4) > 100)

SMILES: CCCS(=O)(=O)Nc1c(F)ccc(C(=O)c2n[nH]c3ncc(-c4cnc(C(C)C)nc4)cc23)c1F [Example 23, N-(2,6-difluoro-3-(5-(2-isopropylpyrimidin-5-yl)-1H-pyrazolo[3,4-b]pyridine-3-carbonyl)phenyl)propane-1-sulfonamide]
- IC50 (MKK4): < 100 nM
- Selectivity Braf (BRaf): +++ (IC50(off-target)/IC50(MKK4) > 100)
- Selectivity JNK1 (JNK1): +++ (IC50(off-target)/IC50(MKK4) > 100)
- Selectivity MKK7 (MKK7): +++ (IC50(off-target)/IC50(MKK4) > 100)

SMILES: CCCS(=O)(=O)Nc1c(F)cc(F)c(C(=O)c2n[nH]c3ncc(-c4cnc(C5CC5)nc4)cc23)c1F [Example 35, N-(3-(5-(2-cyclopropylpyrimidin-5-yl)-1H-pyrazolo[3,4-b]pyridine-3-carbonyl)-2,4,6-trifluorophenyl)propane-1-sulfonamide]
- IC50 (MKK4): < 100 nM
- Selectivity Braf (BRaf): +++ (IC50(off-target)/IC50(MKK4) > 100)
- Selectivity JNK1 (JNK1): +++ (IC50(off-target)/IC50(MKK4) > 100)
- Selectivity MKK7 (MKK7): +++ (IC50(off-target)/IC50(MKK4) > 100)

SMILES: CCCS(=O)(=O)Nc1c(F)ccc(C(=O)c2n[nH]c3ncc(-c4cnc(Cl)nc4)cc23)c1F [Example 12, N-(3-(5-(2-chloropyrimidin-5-yl)-1H-pyrazolo[3,4-b]pyridine-3-carbonyl)-2,6-difluorophenyl)propane-1-sulfonamide]
- IC50 (MKK4): 100 to 1000 nM
- Selectivity Braf (BRaf): +++ (IC50(off-target)/IC50(MKK4) > 100)
- Selectivity JNK1 (JNK1): +++ (IC50(off-target)/IC50(MKK4) > 100)
- Selectivity MKK7 (MKK7): +++ (IC50(off-target)/IC50(MKK4) > 100)

SMILES: CCCS(=O)(=O)Nc1c(F)ccc(C(=O)c2n[nH]c3ncc(-c4cncnc4C)cc23)c1F [Example 29, N-[2,6-difluoro-3-[5-(4-methylpyrimidin-5-yl)-1H-pyrazolo[3,4-b]pyridine-3-carbonyl]phenyl]propane-1-sulfonamide]
- IC50 (MKK4): 100 to 1000 nM
- Selectivity Braf (BRaf): +++ (IC50(off-target)/IC50(MKK4) > 100)
- Selectivity JNK1 (JNK1): +++ (IC50(off-target)/IC50(MKK4) > 100)
- Selectivity MKK7 (MKK7): +++ (IC50(off-target)/IC50(MKK4) > 100)

SMILES: CCCS(=O)(=O)Nc1c(F)ccc(C(=O)c2n[nH]c3ncc(-c4cnc(C5CC5)nc4C)cc23)c1F [Example 31, N-(3-(5-(2-cyclopropyl-4-methylpyrimidin-5-yl)-1H-pyrazolo[3,4-b]pyridine-3 carbonyl)-2,6-difluorophenyl)propane-1-sulfonamide]
- IC50 (MKK4): 100 to 1000 nM
- Selectivity Braf (BRaf): +++ (IC50(off-target)/IC50(MKK4) > 100)
- Selectivity JNK1 (JNK1): +++ (IC50(off-target)/IC50(MKK4) > 100)
- Selectivity MKK7 (MKK7): +++ (IC50(off-target)/IC50(MKK4) > 100)

SMILES: CCCS(=O)(=O)Nc1c(F)ccc(C(=O)c2n[nH]c3ncc(-c4cnc(C)nc4C)cc23)c1F [Example 30, N-[3-[5-(2,4-dimethylpyrimidin-5-yl)-1H-pyrazolo[3,4-b]pyridine-3-carbonyl]-2,6-difluoro-phenyl]propane-1-sulfonamide]
- IC50 (MKK4): 100 to 1000 nM
- Selectivity Braf (BRaf): +++ (IC50(off-target)/IC50(MKK4) > 100)
- Selectivity JNK1 (JNK1): +++ (IC50(off-target)/IC50(MKK4) > 100)
- Selectivity MKK7 (MKK7): +++ (IC50(off-target)/IC50(MKK4) > 100)

SMILES: CCS(=O)(=O)Nc1c(F)ccc(C(=O)c2n[nH]c3ncc(-c4ccc(Cl)cc4)cc23)c1F [Example 3, N-(3-(5-(4-chlorophenyl)-1H-pyrazolo[3,4-b]pyridine-3-carbonyl)-2,6-difluorophenyl)ethanesulfonamide]
- IC50 (MKK4): 100 to 1000 nM
- Selectivity Braf (BRaf): +++ (IC50(off-target)/IC50(MKK4) > 100)
- Selectivity JNK1 (JNK1): ++ (100 ≥ IC50(off-target)/IC50(MKK4) > 10)
- Selectivity MKK7 (MKK7): +++ (IC50(off-target)/IC50(MKK4) > 100)
